Counter-ions that a name gives are not always drawn. Like-named read-outs stand apart in the source and are kept apart here.
Tests used:
Parameters in all cases: species or system AML cell lines (8); Primary HTS, single concentration about 10 uM, Cell Titer Glo viability; log10 luminescence, per cent inhibition relative to cycloheximide control
Conditions in all cases: 72 h, inhibitor
[1] = tested on: CMS
[2] = tested on: U937
[3] = tested on: CHRF288-11
[4] = tested on: MV4-11
[5] = tested on: CMK
[6] = tested on: ML-2
[7] = tested on: MOLM-13
[8] = tested on: M07e
[9] = relative to cycloheximide control, log10 luminescence
[10] = relative to cycloheximide control, log10 luminescence, CMS %inh, 10 µM
[11] = relative to cycloheximide control, log10 luminescence, U937 %inh, 10 µM
[12] = relative to cycloheximide control, log10 luminescence, CHRF288-11 %inh, 10 µM
[13] = relative to cycloheximide control, log10 luminescence, MV4-11 %inh, 10 µM
[14] = relative to cycloheximide control, log10 luminescence, CMK %inh, 10 µM
[15] = relative to cycloheximide control, log10 luminescence, ML-2 %inh, 10 µM
[16] = relative to cycloheximide control, log10 luminescence, MOLM-13 %inh, 10 µM
[17] = relative to cycloheximide control, log10 luminescence, M07e %inh, 10 µM

SMILES | CMS %inh [1, 9] [%] | U937 %inh [2, 9] [%] | CHRF288-11 %inh [3, 9] [%] | MV4-11 %inh [4, 9] [%] | CMK %inh [5, 9] [%] | ML-2 %inh [6, 9] [%] | MOLM-13 %inh [7, 9] [%] | M07e %inh [8, 9] [%] | CMS %inh [1, 10] [%] | U937 %inh [2, 11] [%] | CHRF288-11 %inh [3, 12] [%] | MV4-11 %inh [4, 13] [%] | CMK %inh [5, 14] [%] | ML-2 %inh [6, 15] [%] | MOLM-13 %inh [7, 16] [%] | M07e %inh [8, 17] [%] | further results
CCOC(=O)OC(C)OC(=O)[C@@H]1N2C(=O)[C@@H](NC(=O)[C@H](N)c3ccccc3)[C@H]2SC1(C)C (stereo partly shown) [SJ000285946-4, BACAMPICILLIN HYDROCHLORIDE] | -1.038 | -1.553 | -3.08 | -1.634 | -5.01 | -0.2443 | 6.375 | -1.353 |  |  |  |  |  |  |  |  | 
CN(C)CCC=C1c2ccccc2C=Cc2ccccc21 [SJ000285960-7, CYCLOBENZAPRINE HYDROCHLORIDE] | -1.125 | 7.437 | 66.65 | 2.11 | 3.38 | 3.717 | -2.604 | 2.233 |  |  |  |  |  |  |  |  | 
CCn1cc(C(=O)O)c(=O)c2cc(F)c(N3CCNCC3)nc21 [SJ000285962-4, ENOXACIN] | 4.313 | -0.8348 | 7.607 | 40.28 | 15.64 | 32.21 | -2.8 | 7.045 |  |  |  |  |  |  |  |  | 
CC(=O)/N=c1/sc(S(N)(=O)=O)nn1C [SJ000285971-4, METHAZOLAMIDE] |  |  |  |  |  |  |  |  | -3.008 | -0.6609 | -2.381 | -0.9248 | -8.28 | 1.069 | 1.468 | -2.489 | 
CC(=O)/N=c1/sc(S(N)(=O)=O)nn1C [SJ000285971-5, METHAZOLAMIDE] |  |  |  |  |  |  |  |  | -3.489 | -1.329 | -3.176 | -3.681 | -2.598 | 3.001 | 0.5424 | -1.211 | 
COc1ccc(OC)c(C(O)CNC(=O)CN)c1 (stereo not shown) [SJ000285975-4, MIDODRINE HYDROCHLORIDE] | -2.587 | -2.394 | 5.586 | 0.5881 | -2.727 | 3.423 | -0.9656 | 0.8303 |  |  |  |  |  |  |  |  | 
CC(=O)CCCCn1c(=O)c2c(ncn2C)n(C)c1=O [SJ000285992-7, PENTOXIFYLLINE] | -0.2539 | -1.659 | -2.356 | 4.085 | 2.352 | -1.777 | 0.7772 | -1.002 |  |  |  |  |  |  |  |  | 
CCC(=O)O[C@]1(C(=O)CCl)[C@@H](C)C[C@H]2[C@@H]3CCC4=CC(=O)C=C[C@]4(C)[C@@]3(F)[C@@H](O)C[C@@]21C [SJ000286006-4, CLOBETASOL PROPIONATE] | 4.642 | 16.72 | 12.55 | 4.125 | 12.78 | 4.272 | 8.361 | 3.893 |  |  |  |  |  |  |  |  | 
OCCN1CCN(CCCN2c3ccccc3Sc3ccc(Cl)cc32)CC1 [SJ000286016-7, PERPHENAZINE] |  |  |  |  |  |  |  |  | 1.171 | -2.208 | -1.811 | 1.352 | 1.286 | -0.4093 | -1.496 | 0.915 | 
OCCN1CCN(CCCN2c3ccccc3Sc3ccc(Cl)cc32)CC1 [SJ000286016-8, PERPHENAZINE] |  |  |  |  |  |  |  |  | 3.223 | 5.279 | 40.76 | 2.594 | 10.21 | 2.921 | 2.324 | 5.089 | 
OC(Cn1cncn1)(Cn1cncn1)c1ccc(F)cc1F [SJ000286024-3, FLUCONAZOLE] | -4.097 | 1.624 | -3.189 | 0.2312 | -0.02108 | -1.511 | -1.868 | -2.445 |  |  |  |  |  |  |  |  | 
CC[C@H]1OC(=O)[C@H](C)[C@@H](O[C@H]2C[C@@](C)(OC)[C@@H](O)[C@H](C)O2)[C@H](C)[C@@H](O[C@@H]2O[C@H](C)C[C@H](N(C)C)[C@H]2O)[C@](C)(O)C[C@@H](C)[C@@H]2N[C@@H](COCCOC)O[C@H]([C@H]2C)[C@]1(C)O [SJ000286040-4, DIRITHROMYCIN] |  |  |  |  |  |  |  |  |  |  |  |  |  |  |  |  | CMS %inh ([1]; 10 µM): -2.389%; U937 %inh ([2]; 10 µM): 3.436%; CHRF288-11 %inh ([3]; 10 µM): 3.605%; MV4-11 %inh ([4]; 10 µM): -1.547%; CMK %inh ([5]; 10 µM): -6.058%; ML-2 %inh ([6]; 10 µM): 0.363%; MOLM-13 %inh ([7]; 10 µM): 5.018%; M07e %inh ([8]; 10 µM): -2.158%
CC[C@H]1OC(=O)[C@H](C)[C@@H](O[C@H]2C[C@@](C)(OC)[C@@H](O)[C@H](C)O2)[C@H](C)[C@@H](O[C@@H]2O[C@H](C)C[C@H](N(C)C)[C@H]2O)[C@](C)(O)C[C@@H](C)[C@@H]2N[C@@H](COCCOC)O[C@H]([C@H]2C)[C@]1(C)O [SJ000286040-5, DIRITHROMYCIN] |  |  |  |  |  |  |  |  |  |  |  |  |  |  |  |  | CMS %inh ([1]; 10 µM): -0.1114%; U937 %inh ([2]; 10 µM): -1.919%; CHRF288-11 %inh ([3]; 10 µM): 3.137%; MV4-11 %inh ([4]; 10 µM): -3.548%; CMK %inh ([5]; 10 µM): -5.982%; ML-2 %inh ([6]; 10 µM): -0.7146%; MOLM-13 %inh ([7]; 10 µM): -2.496%; M07e %inh ([8]; 10 µM): -2.366%
CC[C@H]1OC(=O)[C@H](C)[C@@H](O[C@H]2C[C@@](C)(OC)[C@@H](O)[C@H](C)O2)[C@H](C)[C@@H](O[C@@H]2O[C@H](C)C[C@H](N(C)C)[C@H]2O)[C@](C)(OC)C[C@@H](C)C(=O)[C@H](C)[C@@H](O)[C@]1(C)O [SJ000286061-3, CLARITHROMYCIN] |  |  |  |  |  |  |  |  | -1.005 | 1.585 | -0.08051 | 1.904 | 1.841 | 2.326 | 2.582 | 0.43 | 
CC[C@H]1OC(=O)[C@H](C)[C@@H](O[C@H]2C[C@@](C)(OC)[C@@H](O)[C@H](C)O2)[C@H](C)[C@@H](O[C@@H]2O[C@H](C)C[C@H](N(C)C)[C@H]2O)[C@](C)(OC)C[C@@H](C)C(=O)[C@H](C)[C@@H](O)[C@]1(C)O [SJ000286061-4, CLARITHROMYCIN] |  |  |  |  |  |  |  |  | 4.035 | 1.816 | 4.27 | 1.784 | -0.3654 | -1.428 | 0.6227 | 4.017 | 
COc1c(N2CCNC(C)C2)c(F)cc2c(=O)c(C(=O)O)cn(C3CC3)c12 (stereo not shown) [SJ000286066-3, GATIFLOXACIN] | -1.278 | 2.127 | 7.116 | -0.7209 | 1.598 | 1.743 | 8.563 | 0.9683 |  |  |  |  |  |  |  |  | 
CC(=O)OCC(CCn1cnc2cnc(N)nc21)COC(C)=O [SJ000286077-3, FAMCICLOVIR] | 3.04 | 2.68 | -0.6265 | 1.495 | 3.857 | -0.1732 | 3.343 | -1.801 |  |  |  |  |  |  |  |  | 
